Measurements as given in ChEMBL document CHEMBL1201862, “PubChem BioAssay data set” (2004).
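48-hour exposure; five concentrations; linearly interpolated endpoints. Abbreviation: GI50, concentration required for 50% inhibition of growth.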 Active and inactive are the calls of the source. Rule as the data show it: active = GI50 up to about 1.1 µM and inactive = higher.

Assays:
Test in all cases: growth of human tumour cells (NCI), 48 h
[1] = tested on: MOLT-4
[2] = tested on: OVCAR-3
[3] = tested on: A549
[4] = tested on: SN12C
[5] = tested on: NCI-H460
[6] = tested on: SNB-75
[7] = tested on: U-251
[8] = tested on: SK-MEL-5
[9] = tested on: KM12
[10] = tested on: OVCAR-4
[11] = tested on: EKVX
[12] = tested on: UACC-257
[13] = tested on: CCRF-CEM
[14] = tested on: HL-60
[15] = tested on: HT-29
[16] = tested on: HOP-62
[17] = tested on: NCI-H23
[18] = tested on: HCT-15
[19] = tested on: UO-31
[20] = tested on: DLD-1

NC(Cc1ccc(OCc2ccccc2)cc1)C(=O)NC(Cc1ccccc1)C(=O)Oc1c(Cl)c(Cl)c(Cl)c(Cl)c1Cl (configuration not stated)
GI50 [1]: 39.2 µM (inactive)
GI50 [2]: 15.5 µM (inactive)
GI50 [3]: 18.4 µM (inactive)
GI50 [4]: 17.3 µM (inactive)
GI50 [5]: 14.7 µM (inactive)
GI50 [6]: 15.7 µM (inactive)
GI50 [7]: 17.1 µM (inactive)
GI50 [8]: 17.3 µM (inactive)
GI50 [9]: 15.4 µM (inactive)
GI50 [10]: 17.4 µM (inactive)
GI50 [11]: 17.7 µM (inactive)
GI50 [12]: 15.9 µM (inactive)
GI50 [13]: > 100 µM (inactive)
GI50 [14]: 69.5 µM (inactive)
GI50 [15]: 17.5 µM (inactive)
GI50 [16]: 16.6 µM (inactive)
GI50 [17]: 16.8 µM (inactive)
GI50 [18]: 16.4 µM
GI50 [19]: 16.4 µM (inactive)

O=c1ccc2nc3cc(Br)ccc3sc-2c1
GI50 [1]: 21.7 µM (inactive)
GI50 [2]: > 100 µM (inactive)
GI50 [3]: > 100 µM (inactive)
GI50 [4]: > 100 µM (inactive)
GI50 [5]: > 100 µM (inactive)
GI50 [6]: > 100 µM (inactive)
GI50 [7]: > 100 µM (inactive)
GI50 [8]: 62.8 µM (inactive)
GI50 [9]: > 100 µM (inactive)
GI50 [10]: 29.4 µM (inactive)
GI50 [11]: > 100 µM (inactive)
GI50 [12]: > 100 µM (inactive)
GI50 [13]: 12.9 µM (inactive)
GI50 [14]: 13.5 µM (inactive)
GI50 [15]: > 100 µM (inactive)
GI50 [20]: 82.8 µM (inactive)
GI50 [16]: > 100 µM (inactive)
GI50 [17]: > 100 µM (inactive)
GI50 [18]: 74.1 µM
GI50 [19]: > 100 µM (inactive)

CCCCC(=O)c1c(O)nc2sccn2c1=O
GI50 [1]: > 10 µM (inactive)
GI50 [2]: > 10 µM (inactive)
GI50 [3]: > 10 µM (inactive)
GI50 [4]: > 10 µM (inactive)
GI50 [5]: > 10 µM (inactive)
GI50 [6]: > 10 µM (inactive)
GI50 [7]: > 10 µM (inactive)
GI50 [8]: > 10 µM (inactive)
GI50 [9]: > 10 µM (inactive)
GI50 [10]: > 10 µM (inactive)
GI50 [11]: > 10 µM (inactive)
GI50 [13]: > 10 µM (inactive)
GI50 [14]: > 10 µM (inactive)
GI50 [15]: > 10 µM (inactive)
GI50 [16]: > 10 µM (inactive)
GI50 [17]: > 10 µM (inactive)
GI50 [18]: > 10 µM
GI50 [19]: > 10 µM (inactive)

COc1ccc(C2CC(c3c(O)ccc4ccccc34)=NN2)cc1OC (configuration not stated)
GI50 [1]: 2.24 µM (inactive)
GI50 [2]: 4.46 µM (inactive)
GI50 [4]: 4.32 µM (inactive)
GI50 [5]: 2.92 µM (inactive)
GI50 [6]: 1.22 µM (inactive)
GI50 [7]: 2.7 µM (inactive)
GI50 [8]: 2.82 µM (inactive)
GI50 [9]: 3.52 µM (inactive)
GI50 [10]: 6.03 µM (inactive)
GI50 [11]: 6.01 µM (inactive)
GI50 [12]: 6.81 µM (inactive)
GI50 [13]: 4.85 µM (inactive)
GI50 [14]: 4.42 µM (inactive)
GI50 [15]: 1.89 µM (inactive)
GI50 [16]: 3.86 µM (inactive)
GI50 [17]: 3.22 µM (inactive)
GI50 [18]: 4.45 µM
GI50 [19]: 2.11 µM (inactive)

Cc1cccc(C(C)C)c1NC(=O)CC1Sc2ccccc2NC1=O (configuration not stated)
GI50 [1]: 20.5 µM (inactive)
GI50 [2]: > 100 µM (inactive)
GI50 [3]: 87.3 µM (inactive)
GI50 [4]: > 100 µM (inactive)
GI50 [5]: > 100 µM (inactive)
GI50 [6]: 60.3 µM (inactive)
GI50 [7]: > 100 µM (inactive)
GI50 [8]: 35.4 µM (inactive)
GI50 [9]: > 100 µM (inactive)
GI50 [10]: > 100 µM (inactive)
GI50 [11]: > 100 µM (inactive)
GI50 [12]: > 100 µM (inactive)
GI50 [13]: > 100 µM (inactive)
GI50 [14]: 46.9 µM (inactive)
GI50 [15]: 48.9 µM (inactive)
GI50 [20]: > 100 µM (inactive)
GI50 [16]: > 100 µM (inactive)
GI50 [17]: > 100 µM (inactive)
GI50 [18]: 70.1 µM
GI50 [19]: 74.5 µM (inactive)

CC(C)(C)[Si](C)(C)OCC1OC(n2cnc3c(N)ncnc32)CC1O (configuration not stated)
GI50 [1]: 16.1 µM (inactive)
GI50 [2]: 51.2 µM (inactive)
GI50 [4]: > 100 µM (inactive)
GI50 [5]: 97.5 µM (inactive)
GI50 [6]: > 100 µM (inactive)
GI50 [7]: > 100 µM (inactive)
GI50 [8]: 35.6 µM (inactive)
GI50 [9]: 39.6 µM (inactive)
GI50 [10]: 71.4 µM (inactive)
GI50 [12]: > 100 µM (inactive)
GI50 [13]: 22.6 µM (inactive)
GI50 [14]: 20 µM (inactive)
GI50 [15]: > 100 µM (inactive)
GI50 [16]: 92.7 µM (inactive)
GI50 [17]: 79.4 µM (inactive)
GI50 [18]: 81.8 µM
GI50 [19]: 13 µM (inactive)

[O-][n+]1c2c([n+]([O-])c3ccccc31)-c1cccc3cccc-2c13
GI50 [1]: > 100 µM (inactive)
GI50 [2]: > 100 µM (inactive)
GI50 [3]: > 100 µM (inactive)
GI50 [4]: > 100 µM (inactive)
GI50 [5]: 91.2 µM (inactive)
GI50 [6]: 18.4 µM (inactive)
GI50 [7]: 43 µM (inactive)
GI50 [8]: > 100 µM (inactive)
GI50 [9]: > 100 µM (inactive)
GI50 [10]: > 100 µM (inactive)
GI50 [12]: > 100 µM (inactive)
GI50 [13]: > 100 µM (inactive)
GI50 [14]: > 100 µM (inactive)
GI50 [15]: > 100 µM (inactive)
GI50 [17]: 47.3 µM (inactive)
GI50 [18]: > 100 µM
GI50 [19]: 43 µM (inactive)

COC1CCC(O)C(CO)O1 (configuration not stated)
GI50 [1]: 27.6 µM (inactive)
GI50 [2]: 41.4 µM (inactive)
GI50 [3]: > 100 µM (inactive)
GI50 [4]: > 100 µM (inactive)
GI50 [5]: > 100 µM (inactive)
GI50 [6]: > 100 µM (inactive)
GI50 [7]: > 10 µM (inactive)
GI50 [8]: > 100 µM (inactive)
GI50 [9]: > 100 µM (inactive)
GI50 [10]: > 100 µM (inactive)
GI50 [11]: > 100 µM (inactive)
GI50 [12]: 37.4 µM (inactive)
GI50 [13]: 10.9 µM (inactive)
GI50 [14]: 31.7 µM (inactive)
GI50 [15]: > 100 µM (inactive)
GI50 [20]: > 100 µM (inactive)
GI50 [16]: > 100 µM (inactive)
GI50 [17]: > 100 µM (inactive)
GI50 [18]: > 100 µM
GI50 [19]: > 100 µM (inactive)

CN(C)C(=O)OCOC(=O)N(C)C
GI50 [1]: > 100 µM (inactive)
GI50 [2]: > 100 µM (inactive)
GI50 [3]: > 100 µM (inactive)
GI50 [4]: > 100 µM (inactive)
GI50 [5]: > 100 µM (inactive)
GI50 [6]: > 82.8 µM (inactive)
GI50 [7]: > 100 µM (inactive)
GI50 [8]: > 100 µM (inactive)
GI50 [9]: > 100 µM (inactive)
GI50 [10]: > 100 µM (inactive)
GI50 [11]: > 100 µM (inactive)
GI50 [13]: > 100 µM (inactive)
GI50 [14]: > 31.6 µM (inactive)
GI50 [15]: > 100 µM (inactive)
GI50 [20]: > 100 µM (inactive)
GI50 [16]: > 100 µM (inactive)
GI50 [17]: > 100 µM (inactive)
GI50 [18]: > 100 µM
GI50 [19]: > 100 µM (inactive)

CC1(C)OC2CC(=O)OCC23C1CC(=O)C1(C)C3CCC2(C)C(c3ccoc3)OC(=O)C3OC321 (configuration not stated)
GI50 [1]: > 125 µM (inactive)
GI50 [2]: > 125 µM (inactive)
GI50 [3]: > 125 µM (inactive)
GI50 [4]: > 39.5 µM (inactive)
GI50 [5]: > 125 µM (inactive)
GI50 [6]: 64.7 µM (inactive)
GI50 [7]: > 125 µM (inactive)
GI50 [8]: > 125 µM (inactive)
GI50 [9]: > 125 µM (inactive)
GI50 [10]: > 125 µM (inactive)
GI50 [11]: > 58.1 µM (inactive)
GI50 [12]: 124 µM (inactive)
GI50 [13]: > 125 µM (inactive)
GI50 [14]: 101 µM (inactive)
GI50 [15]: > 125 µM (inactive)
GI50 [20]: > 125 µM (inactive)
GI50 [16]: > 125 µM (inactive)
GI50 [17]: > 125 µM (inactive)
GI50 [18]: > 125 µM
GI50 [19]: > 125 µM (inactive)

O=C(O)C12CCCC(CCC1)C2
GI50 [1]: > 100 µM (inactive)
GI50 [2]: > 100 µM (inactive)
GI50 [3]: > 100 µM (inactive)
GI50 [4]: > 100 µM (inactive)
GI50 [5]: > 100 µM (inactive)
GI50 [6]: > 100 µM (inactive)
GI50 [7]: > 100 µM (inactive)
GI50 [8]: > 100 µM (inactive)
GI50 [9]: > 100 µM (inactive)
GI50 [10]: > 100 µM (inactive)
GI50 [11]: > 100 µM (inactive)
GI50 [12]: > 100 µM (inactive)
GI50 [13]: > 100 µM (inactive)
GI50 [14]: > 100 µM (inactive)
GI50 [15]: > 100 µM (inactive)
GI50 [20]: > 100 µM (inactive)
GI50 [16]: > 100 µM (inactive)
GI50 [17]: > 100 µM (inactive)
GI50 [18]: > 100 µM
GI50 [19]: > 100 µM (inactive)

COc1cc(C2c3cc4c(cc3[C@@H](Nc3ccc5c(c3)OCO5)C3COC(=O)[C@H]23)OCO4)cc(OC)c1O (some centres not stated)
GI50 [1]: < 0.0136 µM (active)
GI50 [2]: 2.9 µM (inactive)
GI50 [3]: 0.0294 µM (active)
GI50 [4]: 0.643 µM (active)
GI50 [5]: < 0.01 µM (active)
GI50 [6]: 0.991 µM (active)
GI50 [7]: 0.185 µM (active)
GI50 [8]: 0.63 µM (active)
GI50 [9]: 1.79 µM (inactive)
GI50 [11]: 2.45 µM (inactive)
GI50 [12]: 0.507 µM (active)
GI50 [13]: 0.0641 µM (active)
GI50 [14]: 0.043 µM (active)
GI50 [15]: 1.24 µM (inactive)
GI50 [20]: 1.55 µM (inactive)
GI50 [16]: 0.177 µM (active)
GI50 [17]: 0.303 µM (active)
GI50 [18]: 0.336 µM
GI50 [19]: 0.382 µM (active)
